# Assays:
# [1] = In vitro microsomal stability, monkey; type: in vitro ADME; details: Monkey (Cynomolgus), Male
# Description: (§1) In vitro metabolic stability studies were performed to determine hepatic stability in vivo. CFMQ was incubated in liver microsomal preparations from mouse, rat, dog, mini-pig, and humans, as well as an additional study with monkey and human. CFMQ was incubated with human and animal liver microsomes at 0.3 mg/mL at 37° C. for 30 or 60 minutes. Additional reference compounds were incubated as controls. Following incubation, samples were analyzed by HPLC-MS/MS.
# [2] = Solubility of CFMQ in vehicles; type: physicochemical
# Description: The physicochemical properties of 1-((4-Chloro-3-(((4-(4-fluoro-1H-pyrazol-1-yl)-2-methylquinolin-8-yl)oxy)methyl)-6-methylpyridin-2-yl)methyl)-2-oxo-1,2-dihydropyridine-3-carbonitrile (CFMQ) were determined using standard methods. CFMQ was a free base with a molecular weight of 514.9 Da and was a nonhygroscopic, crystalline powder with a melting point of about 214° C.
# [3] = In vitro microsomal stability, mouse; type: in vitro ADME; details: Mouse (CD-1), Male
# Description: as §1
# [4] = system: BK-induced human umbilical vein contractions; assay: cells; details: Homo sapiens, 0.5 h; 30 minute incubation, BK-induced contractions; read-out: EC50, umbilical vein assay
# Description: The inhibition effect of CFMQ on bradykinin induced […] was examined in an ex vivo functional assay of human umbilical vein contraction, which is considered a gold standard for bradykinin activity measurements. […] Firazyr®). Following a 30 minute incubation, BK-induced vein contractions were initiated in a cumulative manner (final concentration of 10 μM), followed by maximal calibration contraction induction by 10 μM serotonin. The tension increase for each dose response was calculated in relation to the (maximal) response towards serotonin, graphed as a dose-response curve and used to calculate an effective concentration at 50% (EC50) value (FIG. 6)
# [5] = target: T1, A3 (h) (Homo sapiens, UniProt P0DMS8); assay: Off-target receptor binding: A3
# T1 construct: expressed in transfected cells; host or cells: CHO or HEK 293 (not assigned per receptor)
# T1 sequence (P0DMS8 1-318): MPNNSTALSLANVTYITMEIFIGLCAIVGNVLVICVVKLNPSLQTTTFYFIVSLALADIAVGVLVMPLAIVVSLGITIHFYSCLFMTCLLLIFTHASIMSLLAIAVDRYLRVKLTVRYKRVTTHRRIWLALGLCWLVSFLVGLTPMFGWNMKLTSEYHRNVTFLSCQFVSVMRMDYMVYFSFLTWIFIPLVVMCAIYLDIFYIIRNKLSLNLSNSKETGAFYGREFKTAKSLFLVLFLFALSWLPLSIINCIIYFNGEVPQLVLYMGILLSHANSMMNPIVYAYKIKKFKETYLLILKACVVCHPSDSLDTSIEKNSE
# Description: To determine the affinity to the B2-bradykinin receptor, CFMQ was compared to a diverse set of receptors and reference agents in an in vitro assay using cells from rat heart, urinary bladder, cerebral cortex, as well as human recombinant cells (CHO and HEK 293) and other cell lines. Each assay included a ligand at a specific concentration (concentration ranging from 0.007-10 nM), in addition to a non-specific ligand (concentration ranging from […]) for incubation periods ranging from 15 minutes to 6 hours at 4°-37° C. The specific binding to the receptors was defined as the difference between the total binding and the nonspecific binding, determined in the presence of an excess of unlabeled CFMQ. The concentration causing a half-maximal inhibition of control specific binding (IC50 values) and inhibition constants (Ki) were determined, and each reference compound was within the accepted limits of the historic average (±0.5 log units).
# [6] = target: T2, human B2-bradykinin receptor (Homo sapiens, UniProt P30411); assay: Calcium mobilization assay in human fibroblast (HF15) cells; type: cell-based; design: endogenous in cells; host or cells: HF15 human fibroblasts; details: 25 minutes pre-incubation at 25° C., read-out: IC50, inhibition of bradykinin-induced calcium mobilization
# T2 sequence (P30411 1-391): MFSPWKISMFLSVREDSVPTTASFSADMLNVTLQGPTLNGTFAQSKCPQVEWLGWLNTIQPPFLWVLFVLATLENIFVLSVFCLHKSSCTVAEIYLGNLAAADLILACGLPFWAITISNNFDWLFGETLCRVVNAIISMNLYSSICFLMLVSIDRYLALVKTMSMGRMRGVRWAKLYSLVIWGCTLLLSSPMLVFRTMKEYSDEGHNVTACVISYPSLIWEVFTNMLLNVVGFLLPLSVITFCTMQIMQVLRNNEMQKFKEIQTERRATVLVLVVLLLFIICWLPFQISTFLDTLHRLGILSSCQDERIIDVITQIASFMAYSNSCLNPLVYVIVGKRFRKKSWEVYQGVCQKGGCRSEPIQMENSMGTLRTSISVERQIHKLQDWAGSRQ
# Description: CFMQ was formulated as a 5 nM stock solution in 100% DMSO and serially diluted to 0.04, 0.12, 0.37, 1.11, 3.33, 10 and 30 nM. Human fibroblast (HF15) cells, which express the human B2R were loaded with 100 μL calcium dye solution containing 2.5 mM probenicide and were then pre-incubated with CFMQ for 25 minutes at 25° C. The inhibition effect of CFMQ on bradykinin-mediated calcium mobilization was tested in this system by emission of fluorescence signals, using the height of the resulting peak over the baseline value (relative fluorescence units [RFU] max-min). The percent inhibition for each concentration was used for curve fit and IC50 calculation.
# [7] = system: plasma extravasation; assay: Plasma extravasation (Evans blue in bladder), oral, C1-INH knockout mice; type: in vivo, C1-INH-KO mice
smiles,measurement,setting,value
"Cc1cc(Cl)c(COc2cccc3c(-n4cc(F)cn4)cc(C)nc23)c(Cn2cccc(C#N)c2=O)n1 [CFMQ, 1-((4-Chloro-3-(((4-(4-fluoro-1H-pyrazol-1-yl)-2-methylquinolin-8-yl)oxy)methyl)-6-methylpyridin-2-yl)methyl)-2-oxo-1,2-dihydropyridine-3-carbonitrile]",% Remaining [30 minutes],[1]; 30 minutes,32%
same,% Remaining [60 minutes],[1]; 60 minutes,7%
same,solubility,"[2]; 0.1 N HCl, simulated gastric fluid, HCl 0.1N, pH 1.3",0.32 mg/mL
same,solubility,"[2]; Labrasol (glyceryl and polyethylene glycol esters), aqueous with cosolvent or surfactant or cyclodextrin",1.43 mg/mL
same,solubility,"[2]; NaOH 0.1N, pH 12.8, aqueous buffer",< 0.01 mg/mL
same,solubility,"[2]; PEG400 (polyethylene glycol 400), organic solvent or mixture",2.37 mg/mL
same,solubility,"[2]; Tween 20 (polyoxyethylene (20) sorbitan monolaurate), aqueous with cosolvent or surfactant or cyclodextrin",0.87 mg/mL
same,solubility,"[2]; Tween 80 (polyoxyethylene (80) sorbitan monolaurate), aqueous with cosolvent or surfactant or cyclodextrin",3.5 mg/mL
same,solubility,"[2]; citrate/NaOH buffer, aqueous buffer, Citrate/NaOH pH 2",0.02 mg/mL
same,solubility,"[2]; citrate/NaOH buffer, aqueous buffer, Citrate/NaOH pH 5",< 0.01 mg/mL
same,solubility,"[2]; ethanol, organic solvent or mixture",0.17 mg/mL
same,solubility,"[2]; glycerol, organic solvent or mixture",0.01 mg/mL
same,solubility,"[2]; olive oil, oil or lipid",< 0.01 mg/mL
same,solubility,"[2]; organic solvent or mixture, Acetic acid, glacial",19.9 mg/mL
same,solubility,"[2]; phosphate buffer, pH 7, aqueous buffer",< 0.01 mg/mL
same,solubility,"[2]; propylene glycol, organic solvent or mixture",0.1 mg/mL
same,solubility,[2]; water,< 0.01 mg/mL
same,% Remaining [30 minutes],[3]; 30 minutes,7%
same,% Remaining [60 minutes],[3]; 60 minutes,3%
same,EC50,[4],0.0073 µM
same,IC50,[5],7.6 µM
same,Ki,[5],4.5 µM
same,nH,[5],1.4
same,inhibition at 10 µM,[5]; CFMQ at 10 μM,53%
same,IC50,[6],0.00297 µM
same,efficacy compared with 0.4 mg/kg SC Firazyr,[7]; oral 3.0 mg/kg,nearly as effective
same,inhibition of EB accumulation in the bladder,[7]; oral 10 mg/kg,~100%
same,inhibition of EB accumulation in the bladder,[7]; oral 30 mg/kg,~100%

# Reference: patent US20160030416A1, “METHODS OF TREATING B2-BRADYKININ RECEPTOR MEDIATED ANGIOEDEMA” (SHIRE HUMAN GENETIC THERAPIES, INC., priority 2013, published 2016)
